# Test results published in PubChem BioAssay (NCI).
#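 Following 48 hours of exposure in 96-well plates, responses at five concentrations were used to interpolate endpoints linearly. At the GI50, growth is halved. TGI marks complete inhibition of growth.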
# Experiments:
# Test in all cases: NCI anticancer screen, dose series, 48 h
# MDA-MB-231 breast = system: MDA-MB-231 breast
# HCC-2998 colon = system: HCC-2998 colon
# A498 renal = system: A498 renal
# OVCAR-5 ovarian = system: OVCAR-5 ovarian
# UACC-257 melanoma = system: UACC-257 melanoma
# EKVX NSCLC = system: EKVX NSCLC
# SW-620 colon = system: SW-620 colon
# UO-31 renal = system: UO-31 renal
# SN12C renal = system: SN12C renal
# NCI/ADR-RES ovarian = system: NCI/ADR-RES ovarian
# ACHN renal = system: ACHN renal
# KM12 colon = system: KM12 colon
# OVCAR-3 ovarian = system: OVCAR-3 ovarian
# SF-539 CNS = system: SF-539 CNS
# MOLT-4 leukemia = system: MOLT-4 leukemia
# PC-3 prostate = system: PC-3 prostate
# MALME-3M melanoma = system: MALME-3M melanoma
# SNB-19 CNS = system: SNB-19 CNS
# K-562 leukemia = system: K-562 leukemia
# HOP-92 NSCLC = system: HOP-92 NSCLC
# NCI-H226 lung = system: NCI-H226 lung
# SK-OV-3 ovarian = system: SK-OV-3 ovarian
# OVCAR-8 ovarian = system: OVCAR-8 ovarian
# U251 CNS = system: U251 CNS
# T-47D breast = system: T-47D breast
# RPMI-8226 leukemia = system: RPMI-8226 leukemia
# RXF 393 renal = system: RXF 393 renal
# SK-MEL-2 melanoma = system: SK-MEL-2 melanoma
# HCT-15 colon = system: HCT-15 colon
# HS 578T breast = system: HS 578T breast
# CCRF-CEM leukemia = system: CCRF-CEM leukemia
# OVCAR-4 ovarian = system: OVCAR-4 ovarian
# MDA-MB-435 = system: MDA-MB-435
# LOX IMVI melanoma = system: LOX IMVI melanoma
# SF-295 CNS = system: SF-295 CNS
# NCI-H522 lung = system: NCI-H522 lung
# A549 NSCLC = system: A549 NSCLC
# 786-0 renal = system: 786-0 renal
# NCI-H460 lung = system: NCI-H460 lung
# DU-145 prostate = system: DU-145 prostate
# HL-60(TB) leukemia = system: HL-60(TB) leukemia
# M14 melanoma = system: M14 melanoma
# HCT-116 colon = system: HCT-116 colon
# SK-MEL-5 melanoma = system: SK-MEL-5 melanoma
# BT-549 breast = system: BT-549 breast
# SF-268 CNS = system: SF-268 CNS
# TK-10 renal = system: TK-10 renal
# MCF7 breast = system: MCF7 breast
# MDA-MB-468 breast = system: MDA-MB-468 breast
# UACC-62 melanoma = system: UACC-62 melanoma
# HOP-62 NSCLC = system: HOP-62 NSCLC
# COLO 205 colon = system: COLO 205 colon
# SK-MEL-28 melanoma = system: SK-MEL-28 melanoma
# HT29 colon = system: HT29 colon
# SR leukemia = system: SR leukemia
# NCI-H23 lung = system: NCI-H23 lung
# CAKI-1 renal = system: CAKI-1 renal
# IGROV1 ovarian = system: IGROV1 ovarian
structure (smiles),measurement,setting,value
COc1ccc(C(=O)/C=C/c2ccc3ccccc3c2)cc1S(N)(=O)=O,GI50,MDA-MB-231 breast,2500 nM
same,TGI,MDA-MB-231 breast,7.51 µM
same,GI50,HCC-2998 colon,1560 nM
same,TGI,HCC-2998 colon,2930 nM
same,GI50,A498 renal,14.6 µM
same,TGI,A498 renal,28.2 µM
same,GI50,OVCAR-5 ovarian,1750 nM
same,TGI,OVCAR-5 ovarian,4.15 µM
same,GI50,UACC-257 melanoma,3.79 µM
same,TGI,UACC-257 melanoma,14.5 µM
same,GI50,EKVX NSCLC,6.61 µM
same,TGI,EKVX NSCLC,20.1 µM
same,GI50,SW-620 colon,1780 nM
same,TGI,SW-620 colon,3.6 µM
same,GI50,UO-31 renal,1310 nM
same,TGI,UO-31 renal,2580 nM
same,GI50,SN12C renal,1560 nM
same,TGI,SN12C renal,3.25 µM
same,GI50,NCI/ADR-RES ovarian,2700 nM
same,TGI,NCI/ADR-RES ovarian,8.21 µM
same,GI50,ACHN renal,1780 nM
same,TGI,ACHN renal,3.37 µM
same,GI50,KM12 colon,1560 nM
same,TGI,KM12 colon,3.33 µM
same,GI50,OVCAR-3 ovarian,1580 nM
same,TGI,OVCAR-3 ovarian,3.38 µM
same,GI50,SF-539 CNS,1690 nM
same,TGI,SF-539 CNS,3.15 µM
same,GI50,MOLT-4 leukemia,2090 nM
same,TGI,MOLT-4 leukemia,4.95 µM
same,GI50,PC-3 prostate,1780 nM
same,TGI,PC-3 prostate,4.05 µM
same,GI50,MALME-3M melanoma,3.2 µM
same,TGI,MALME-3M melanoma,14.9 µM
same,GI50,SNB-19 CNS,2150 nM
same,TGI,SNB-19 CNS,5.95 µM
same,GI50,K-562 leukemia,1580 nM
same,TGI,K-562 leukemia,5.45 µM
same,GI50,HOP-92 NSCLC,1900 nM
same,TGI,HOP-92 NSCLC,9.2 µM
same,GI50,NCI-H226 lung,2360 nM
same,TGI,NCI-H226 lung,8.37 µM
same,GI50,SK-OV-3 ovarian,4.91 µM
same,TGI,SK-OV-3 ovarian,18.6 µM
same,GI50,OVCAR-8 ovarian,2480 nM
same,TGI,OVCAR-8 ovarian,7.04 µM
same,GI50,U251 CNS,1190 nM
same,TGI,U251 CNS,2460 nM
same,GI50,T-47D breast,1760 nM
same,TGI,T-47D breast,6.77 µM
same,GI50,RPMI-8226 leukemia,1630 nM
same,TGI,RPMI-8226 leukemia,4.62 µM
same,GI50,RXF 393 renal,1570 nM
same,TGI,RXF 393 renal,3.34 µM
same,GI50,SK-MEL-2 melanoma,12.2 µM
same,TGI,SK-MEL-2 melanoma,25.4 µM
same,GI50,HCT-15 colon,574 nM
same,TGI,HCT-15 colon,2080 nM
same,GI50,HS 578T breast,17.5 µM
same,TGI,HS 578T breast,54.8 µM
same,GI50,CCRF-CEM leukemia,2630 nM
same,TGI,CCRF-CEM leukemia,6.4 µM
same,GI50,OVCAR-4 ovarian,2960 nM
same,TGI,OVCAR-4 ovarian,10.9 µM
same,GI50,MDA-MB-435,2400 nM
same,TGI,MDA-MB-435,6.72 µM
same,GI50,LOX IMVI melanoma,1320 nM
same,TGI,LOX IMVI melanoma,2590 nM
same,GI50,SF-295 CNS,1880 nM
same,TGI,SF-295 CNS,4.89 µM
same,GI50,NCI-H522 lung,1620 nM
same,TGI,NCI-H522 lung,3.32 µM
same,GI50,A549 NSCLC,1990 nM
same,TGI,A549 NSCLC,7.72 µM
same,GI50,786-0 renal,1690 nM
same,TGI,786-0 renal,3.62 µM
same,GI50,NCI-H460 lung,2960 nM
same,TGI,NCI-H460 lung,8.84 µM
same,GI50,DU-145 prostate,3.31 µM
same,TGI,DU-145 prostate,11.8 µM
same,GI50,HL-60(TB) leukemia,1610 nM
same,TGI,HL-60(TB) leukemia,4.11 µM
same,GI50,M14 melanoma,2260 nM
same,TGI,M14 melanoma,5.98 µM
same,GI50,HCT-116 colon,1900 nM
same,TGI,HCT-116 colon,4.82 µM
same,GI50,SK-MEL-5 melanoma,3.48 µM
same,TGI,SK-MEL-5 melanoma,13.6 µM
same,GI50,BT-549 breast,1530 nM
same,TGI,BT-549 breast,3.27 µM
same,GI50,SF-268 CNS,3.2 µM
same,TGI,SF-268 CNS,13.3 µM
same,GI50,TK-10 renal,2040 nM
same,TGI,TK-10 renal,8.17 µM
same,GI50,MCF7 breast,1540 nM
same,TGI,MCF7 breast,4.72 µM
same,GI50,MDA-MB-468 breast,1430 nM
same,TGI,MDA-MB-468 breast,2900 nM
same,GI50,UACC-62 melanoma,1600 nM
same,TGI,UACC-62 melanoma,3.32 µM
same,GI50,HOP-62 NSCLC,1990 nM
same,TGI,HOP-62 NSCLC,5.49 µM
same,GI50,COLO 205 colon,1960 nM
same,TGI,COLO 205 colon,4.06 µM
same,GI50,SK-MEL-28 melanoma,2130 nM
same,TGI,SK-MEL-28 melanoma,5.14 µM
same,GI50,HT29 colon,1670 nM
same,TGI,HT29 colon,3.53 µM
same,GI50,SR leukemia,867 nM
same,TGI,SR leukemia,3.54 µM
same,GI50,NCI-H23 lung,1730 nM
same,TGI,NCI-H23 lung,3.3 µM
same,GI50,CAKI-1 renal,2120 nM
same,TGI,CAKI-1 renal,6.17 µM
same,GI50,IGROV1 ovarian,2070 nM
same,TGI,IGROV1 ovarian,5.36 µM
